Patent US7481993B2, “Chelators for radioactively labeled conjugates comprising a stabilizing sidechain” (Schering AG, priority 2005, dated 2009)
“And” between values parts separate entries of the source, which are not always exact repeats. Equal values may be shown once. * marks the point of attachment. Bz = O=C(c1ccccc1)*

Legend:
Assay type in all cases: physicochemical
[1] = HPLC radiochemical purity (RCP) stability of ^99mTc radiolabeled somatostatin peptides
Experimental: Lyophilized kit “placebo” vials were prepared containing 5 mg sodium glucoheptonate dihydrate, 100 μg edetate disodium dihydrate, and either 50 μg (^99mTc placebo) or 1000 μg (^188Re placebo) stannous chloride dihydrate. The formulations were adjusted to pH 7.4 prior to lyophilization.
(§1) For the ^99mTc radiolabeling, a peptide as the TFA salt was dissolved in saline at 1 mg/mL and 100 μg (100 μL) was added to a ^99mTc placebo vial. The vial was reconstituted with 0.9 mL technetium ^99mTc sodium pertechnetate containing approximately 20 mCi and saline such that the final preparation volume was 1.1 mL. The vial was heated in a boiling water bath for 10 minutes and cooled at room temperature for 10 minutes.
(§2) The radiochemical purity (RCP) of the ^99mTc or ^188Re peptides was measured by gradient reversed phase HPLC using a Eurosphere-100 C18 HPLC column and 0.1% TFA mobile phases moderated with acetonitrile. Radioactive components were detected in the HPLC system using an in-line radiometric detector. Under the gradient conditions employed radiolabeled impurities (for example: ^99mTc glucoheptonate, ^99mTc edetate, and ^99mTc pertechnetate) eluted early (between 1 and 4 minutes), while the radiolabeled peptides eluted much later (between 8 and 20 minutes). In general, two isomeric radiometal complexes were observed, and the HPLC RCP was measured as the sum of the percent areas of the peaks corresponding to the two complexes. Radiochemical purity results for each of compounds are summarized in the examples that follow.
Somatostatin peptides were prepared with varying sidechains in the chelator portion of the compounds as described in FIG. 2. The sidechains varied in length from 0 to 5 atoms. These peptides have an amine-diamide-thiol chelator of the (β)Dap-N^2-Cys type (N^2=any amino acid). Each of the peptides were radiolabeled and monitored for HPLC stability out to 9 hours according the procedures described in Example 3.
Analogs to a commercial lung cancer imaging radiopharmaceutical (NeoTect®) were prepared to investigate the influence of the stabilizing sidechain (D)-CH2CH2CH2NH2 as described in FIG. 3. These peptides have an amine-diamide-thiol chelator of the (β)Dap-N^2-Cys type (N^2=any amino acid). The compound with N^2=Lys (sidechain=(L)-CH2CH2—CH2CH2NH2) is the peptide in the commercial radiopharmaceutical product. Each of the peptides were radiolabeled and monitored for HPLC stability out to 18 hours according to the procedures described in Example 3.

[2] = Cysteine challenge stability of ^188Re chelator peptides; conditions: radiolabeled with ^188Re
Experimental: For the ^188Re radiolabeling, a peptide as the TFA salt was dissolved in saline at 1 mg/mL and 100 μg (100 μL) was added to a ^188Re placebo vial. To the vial was added 100 μg stannous chloride dihydrate. The vial was reconstituted with 0.9 mL rhenium ^188Re sodium perrhenate containing approximately 20 mCi and saline such that the final preparation volume was 1.5 mL. The vial was heated in a boiling water bath for 15 minutes and cooled at room temperature for 10 minutes. Finally 1 mL of an antioxidant stabilizer solution containing 10 mg gentisic acid sodium salt monohydrate and 20 mg ascorbic acid was added to the vial.
as §2
(§3) To ^99mTc radiolabelled peptide preparations described in Example 3 was added 150 μg of cysteine (approximately a 7-fold molar excess over peptide), and the preparations were stored at room temperature and monitored by HPLC for up to 12 hours. The amount of ^99mTc cysteine formed over time was noted. The initial HPLC analysis was started within 5 minutes of adding cysteine. In all cysteine challenge studies, a chelator compound containing a stabilizing sidechain was screened vs. the corresponding control chelator compound containing no sidechain. The relative amount of ^99mTc cysteine formed over time correlates inversely with the stability of the chelator (ie. less ^99mTc cysteine indicates higher chelator stability).
Some of the N^1—N^2-Cys (N^1, N^2=independently any amino acid) model chelator peptides described in Example 7 were radiolabeled with ^188Re and screened in the cysteine challenge experiment described in Example 4. Two chelators (See FIG. 4) were compared directly to the control chelator containing no stabilizing sidechain. In these studies, the products were monitored for 6 hours. Results in Table 8 represent % Peptide complexed to ^188Re (ie. 100%−the amount of ^188Re cysteine) vs. time.

[3] = Cysteine challenge stability of ^99mTc chelator peptides; conditions: N1-N2-Cys triamide thiol chelators; for % Peptide Complexed to ^99mTc Initial: 150 μg cysteine, room temperature, Initial (within 5 minutes); for % Peptide Complexed to ^99mTc 2 h / % Peptide Complexed to ^99mTc 4 h / % Peptide Complexed to ^99mTc 6 h / % Peptide Complexed to ^99mTc 8 h / % Peptide Complexed to ^99mTc 10 h / % Peptide Complexed to ^99mTc 12 h: cysteine challenge
Experimental: as §1, §2, §3
Several model chelator peptides were prepared with an N^1—N^2-Cys (N^1, N^2=independently any amino acid) amino acid sequence capable of complexing technetium as a triamide thiol chelator. Various stabilizing sidechains were substituted into the N^1—N^2-Cys chelator in two positions R1 and R2 as depicted in FIG. 4. The compounds were screened in the cysteine challenge experiment described in Example 4. Several experiments were conducted where 1-2 chelators were compared directly to a control chelator containing no stabilizing sidechain (compound GoC1 was also analyzed alone in a further study). Results in Table 5 represent % Peptide complexed to ^99mTc (ie. 100%−the amount of ^99mTc cysteine) vs. time.
Several model chelator peptides were prepared with an (β)Dap-N^2-Cys (N^2=any amino acid) amino acid sequence capable of complexing technetium as an amine diamide thiol chelator. This chelator is the chelator in the somatostatin peptides that were evaluated in Examples 5 and 6. Various stabilizing sidechains were substituted into the (β)Dap-N^2-Cys chelator in two positions R3 and R4 as depicted in FIG. 5. The compounds were screened in the cysteine challenge experiment described in Example 4. Several experiments were conducted where 1-2 chelators were compared directly to a control chelator containing no stabilizing sidechain. Results in Table 6 are the same as described in Example 7.
Two model chelator peptides were prepared with a ma-N^1—N^2 (Ma=mercaptoacetyl; N^1, N^2=independently any amino acid) amino acid sequence capable of complexing technetium as a triamide thiol chelator. This chelator has the thiol donor group at the N-terminus of the peptide. A stabilizing sidechain was substituted into the ma-N^1—N^2 chelator in position R5 as depicted in FIG. 6. The compounds were radiolabeled according to Example 3 with the exception that additional NaOH was added to bring the pH of the preparation up to pH 8.5. […]

[4] = ^99mTc labeled somatostatin peptide, (β)Dap-N2-Cys chelator, sum of percent areas of the two complex peaks
[5] = ^99mTc labeled somatostatin peptide, (β)Dap-N2-Cys chelator

## cyclo-[(N-Me)Phe-Tyr-(D)Trp-Lys-Val-Hcy]-CH2CO.(β)Dap-Lys-Cys-Lys-NH2 [-(β)Dap-Lys-Cys-Lys-NH2, reference compound]
[1]; ^99mTc labeled NeoTect analogs
  HPLC RCP 0.5 hours: 93.9%
  HPLC RCP 3 hours: 91.0%
  HPLC RCP 6 hours: 85.2%
  HPLC RCP 9 hours: 81.8%
  HPLC RCP 18 hrs.: 75.7%

## cyclo-[Tyr-(D)Trp-Lys-Thr-Phe-(N-Me)Hcy]-CH2CO.(β)Dap-Orn-Cys-Thr-Ser [—CH2CH2CH2NH2]
[1]; [4]
  HPLC RCP 0.5 hours: 97.0%
[1]; [5]
  HPLC RCP 3 hours: 95.2%
  HPLC RCP 6 hours: 94.9%
  HPLC RCP 9 hours: 94.9%

## cyclo-[(N-Me)Phe-Tyr-(D)Trp-Lys-Val-Hcy]-CH2CO.(β)Dap-(D)Orn-Cys-Lys-NH2 [-(β)Dap-(D)Orn-Cys-Lys-NH2]
[1]; ^99mTc labeled NeoTect analogs
  HPLC RCP 0.5 hours: 96.8%
  HPLC RCP 3 hours: 94.1%
  HPLC RCP 6 hours: 91.3%
  HPLC RCP 9 hours: 89.8%
  HPLC RCP 18 hrs.: 81.9%

## cyclo-[Tyr-(D)Trp-Lys-Thr-Phe-(N-Me)Hcy]-CH2CO.(β)Dap-Gly-Cys-Thr-Ser [—H]
[1]; [4]
  HPLC RCP 0.5 hours: 89.7%
[1]; [5]
  HPLC RCP 3 hours: 84.8%
  HPLC RCP 6 hours: 83.7%
  HPLC RCP 9 hours: 80.2%

## Bz-Gly-Gly-Glu-Cys-Ala.amide (Bz-GGECA-NH2; SMILES C[C@H](NC(=O)[C@H](CS)NC(=O)[C@H](CCC(=O)O)NC(=O)CNC(=O)CNC(=O)c1ccccc1)C(N)=O)
[2]; 1.5 h
  % Peptide Complexed to ^188Re: 94.0%
[2]; 3 h
  % Peptide Complexed to ^188Re: 90.5%
[2]; 4.5 h
  % Peptide Complexed to ^188Re: 89.7%
[2]; 6 h
  % Peptide Complexed to ^188Re: 90.2%
[2]; N1-N2-Cys chelators, Initial
  % Peptide Complexed to ^188Re: 98.0%
[3]
  % Peptide Complexed to ^99mTc Initial: 100%
  % Peptide Complexed to ^99mTc 2 h: 88.9%
  % Peptide Complexed to ^99mTc 4 h: 84.5%
  % Peptide Complexed to ^99mTc 6 h: 80.3%
  % Peptide Complexed to ^99mTc 8 h: 75.7%
  % Peptide Complexed to ^99mTc 10 h: 74.1%
  % Peptide Complexed to ^99mTc 12 h: 69.0%

## Bz-Gly-Gly-Gly-Cys-Ala.amide (Bz-GGGCA-NH2; SMILES C[C@H](NC(=O)[C@H](CS)NC(=O)CNC(=O)CNC(=O)CNC(=O)c1ccccc1)C(N)=O) [GGC1, control chelator, no stabilizing sidechain]
[2]; 1.5 h
  % Peptide Complexed to ^188Re: 80.1%
[2]; 3 h
  % Peptide Complexed to ^188Re: 61.4%
[2]; 4.5 h
  % Peptide Complexed to ^188Re: 50.2%
[2]; 6 h
  % Peptide Complexed to ^188Re: 47.7%
[2]; N1-N2-Cys chelators, Initial
  % Peptide Complexed to ^188Re: 100%
[3]
  % Peptide Complexed to ^99mTc Initial: 98.2% and 98.8% and 96.9%
  % Peptide Complexed to ^99mTc 2 h: 83.4% and 83.6% and 85.2%
  % Peptide Complexed to ^99mTc 4 h: 83.5% and 74.0% and 71.7%
  % Peptide Complexed to ^99mTc 6 h: 74.3% and 72.0%
  % Peptide Complexed to ^99mTc 8 h: 69.8% and 68.3% and 61.7%
  % Peptide Complexed to ^99mTc 10 h: 57.9% and 65.0% and 60.0%
  % Peptide Complexed to ^99mTc 12 h: 60.7% and 49.7%

## cyclo-[Tyr-(D)Trp-Lys-Thr-Phe-(N-Me)Hcy]-CH2CO.(β)Dap-Dab-Cys-Thr-Ser [—CH2CH2NH2]
[1]; [4]
  HPLC RCP 0.5 hours: 94.3%
[1]; [5]
  HPLC RCP 3 hours: 91.6%
  HPLC RCP 6 hours: 90.7%
  HPLC RCP 9 hours: 89.2%

## cyclo-[(N-Me)Phe-Tyr-(D)Trp-Lys-Val-Hcy]-CH2CO.(β)Dap-Gly-Cys-Lys-NH2 [-(β)Dap-Gly-Cys-Lys-NH2]
[1]; ^99mTc labeled NeoTect analogs
  HPLC RCP 0.5 hours: 92.3%
  HPLC RCP 3 hours: 84.9%
  HPLC RCP 6 hours: 85.6%
  HPLC RCP 9 hours: 81.3%
  HPLC RCP 18 hrs.: 76.0%

## cyclo-[Tyr-(D)Trp-Lys-Thr-Phe-(N-Me)Hcy]-CH2CO.(β)Dap-(α)Dap-Cys-Thr-Ser [—CH2NH2]
[1]; [4]
  HPLC RCP 0.5 hours: 88.5%
[1]; [5]
  HPLC RCP 3 hours: 86.6%
  HPLC RCP 6 hours: 84.1%
  HPLC RCP 9 hours: 82.6%

## cyclo-[Tyr-(D)Trp-Lys-Thr-Phe-(N-Me)Hcy]-CH2CO.(β)Dap-Met-Cys-Thr-Ser [—CH2CH2SCH3]
[1]; [4]
  HPLC RCP 0.5 hours: 95.0%
[1]; [5]
  HPLC RCP 3 hours: 93.7%
  HPLC RCP 6 hours: 92.5%
  HPLC RCP 9 hours: 92.3%

## cyclo-[Tyr-(D)Trp-Lys-Thr-Phe-(N-Me)Hcy]-CH2CO.(β)Dap-Lys-Cys-Thr-Ser [—CH2CH2CH2CH2NH2]
[1]; [4]
  HPLC RCP 0.5 hours: 83.4%
[1]; [5]
  HPLC RCP 3 hours: 83.4%
  HPLC RCP 6 hours: 81.3%
  HPLC RCP 9 hours: 81.0%
